Test results from US20250281516A1, “NUTRACEUTICAL FORMULATION FOR POLYCYSTIC OVARY SYNDROME” (priority 2019, published 2025).

Columns and labels:
[1] = test system: patients (ovulation); details: inositol alone administered; cited from earlier work
[2] = test system: PCOS symptoms; test: Physician's further feedback in general on PCOS symptom control; design: species or system women; details: in vivo
[3] = test system: infertile PCOS women; details: inositol and folic acid administered; cited from earlier work

Structure (SMILES): O[C@H]1[C@H](O)[C@@H](O)[C@H](O)[C@@H](O)[C@H]1O [inositol]
- patients showing improvement in ovulation [1]: about 62%
- effectiveness compared with the combination formulation [2]: not as effective
- restoration of ovulation [3]: about 70%

Structure (SMILES): O[C@H]1[C@H](O)[C@@H](O)[C@H](O)[C@@H](O)[C@H]1O [myo-inositol]
- duration of treatment after which most PCOS symptoms were controlled [2]: > 6 month
